Experimental findings from patent US9233095B2, “Small molecule RNase inhibitors and methods of use” (University of Rochester, priority 2011, dated 2016) are described below.

Bounds are passed on as bounds.

Assay [1] has as its system S. aureus cellular mRNA degradation. The assay is described as follows: GeneChip mRNA turnover of RNPA1000 challenged cells. The following applies: 0.5× MIC, 30 min treatment, versus mock treated cells. The format is cell-based. Here is the method:
For half life determinations, S. aureus strain UAMS-1, RN4220 (pCN51; plasmid containing CdCl2 inducible promoter), RN4220 (pRNPA; pCN51 capable of producing full length rnpA mRNA), or RN4220 (pRNPA-A.S.; pCN51 capable of producing rnpA antisense RNA) were grown to mid-exponential or stationary phase, transcription was arrested by the addition of rifampin (200 μg/ml), and aliquots were removed at 0-, 2.5-, 5-, 15- and 30-min post-transcriptional arrest for strain UAMS-1. To conserve reagents, aliquots were removed at 0 and 10 min post-transcriptional arrest for RN4220 derivatives. Plating ensured cultures had not developed rifampin resistance. Each strain and/or growth phase was assessed twice, except for RN4220 pRNPA-A.S. cells which were assessed four times. RNA was isolated from each aliquot, labeled, hybridized to an S. aureus GeneChip (Affymetrix; Santa Clara, Calif.), duplicates were averaged, and the mRNA half-lives of all mRNA species were determined, as previously described (see Anderson et al., J Bacteriol, 188: 6739-6756 (2006); Roberts et al., J Bacteriol, 188: 2593-2603 (2006)). […] Transcript synthesis was then arrested and the transcript titers of mRNA species were measured at 0- and 5-min post-transcriptional arrest (see Anderson et al., J Bacteriol, 188: 6739-6756 (2006); Roberts et al., J Bacteriol, 188: 2593-2603 (2006)). […]

The subject of assay [2] is A. baumannii. The assay is described as follows: CLSI broth microdilution MIC. Type of assay: cell-based, Acinetobacter baumannii. From the text: In some examples, compounds can be further assayed using the Mueller Hinton (MH) broth antibacterial assay as specified by the Clinical and Laboratory Standards Institute MIC broth microdilution protocol (see Methods for Dilution Antimicrobial Susceptibility Tests for Bacteria That Grow Aerobically; Approved Standard, In The Clinical and Laboratory Standards Institute (CLSI, formerly NCCLS), 7th ed., January 2006, 26 (2), M7-A7; see also Performance Standards for Antimicrobial Susceptibility Testing; Eighteenth Informational Supplement, In The Clinical and Laboratory Standards Institute (CLSI, formerly NCCLS), January 2008, 28 (1), M100-S18).
With the exception of RN4220-derivatives, in vitro activities of RNPA1000 against bacteria were determined by the broth microdilution method according to the Clinical and Laboratory Standards Institute (CLSI) guidelines using cation adjusted Mueller-Hinton broth or MH broth supplemented with 5% lysed horse blood (for testing Streptotococcus spp.). Microtiter plates containing serial dilutions of RNPA1000 (0, 4, 8, 16, 32, 64, and 128 μg/ml) were inoculated with 10^5 colony forming units (CFU)/ml and incubated for 18 hr at 37° C. […] The MIC value for each S. aureus strain was determined to be the median score of replicate measurements (n=5). Wells containing concentrations of RNPA1000≧MIC were plated for minimal bactericidal measurement. Where possible, experiments with VRSA strains were performed in a laminar flow hood to minimize potential for equipment contamination. For RN4220 cells containing plasmid vector (pCN51), RnpA overproducing plasmid (pRNPA-S) or RnpA underproducing plasmid (pRNPA-A.S.) in vitro antimicrobial activity of RNPA1000 was performed by the microdilution method as described above, except that cells were grown in Tryptic Soy Broth medium supplemented with 2.5 μM CdCl2 and 0, 1, 2, 4, 8, 16, 32, 64, or 128 μg/ml RNPA1000. Time-kill assays were also performed to monitor the antimicrobial properties of RNPA1000 for S. aureus strain UAMS-1 in the absence and presence of 0.25, 0.5, 2, and 4 times the strain's MIC for oxacillin (1 μg/ml), rifampicin (0.5 μg/ml), vancomycin (2 μg/ml), or daptomycin (1 μg/ml). The indicated amount of RNPA1000 and/or commercial antibiotic were added to mid-exponential phase (2×10^8 cfu/ml) S. aureus strain UAMS-1 cells and incubated at 37° C. Aliquots were removed at 0, 2, 4, 8, and 24 hr post-antimicrobial challenge, serial diluted, and plated to enumerate resulting cfu/ml. All time-kill assays were repeated at least 3 times.
A general note: Dilution methods test growth across graded concentrations, often in twofold steps.

Assay [3] has as its target T1, RNase A (Bos taurus, UniProt P61823).
T1 construct: purchased
The assay is described as follows: ribonuclease specificity test. Type of assay: biochemical. The following applies: any concentration tested (0-750 μM). The source says:
(§1) In total, fourteen molecules inhibited the enzyme's RNA turnover activity by ≧50%. A gel-based secondary assay confirmed that five of these molecules were bona-fide inhibitors of RnpA-mediated RNA degradation (FIG. 3B).

In assay [4] the target is T2, E. coli RNase HI (Escherichia coli, UniProt P0A7Y4).
T2 construct: purchased
T2 sequence (P0A7Y4 whole entry): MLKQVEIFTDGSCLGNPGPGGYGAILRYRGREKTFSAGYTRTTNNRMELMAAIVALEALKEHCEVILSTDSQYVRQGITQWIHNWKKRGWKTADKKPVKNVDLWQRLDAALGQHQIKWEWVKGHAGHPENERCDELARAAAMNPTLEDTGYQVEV
The assay is described as follows: ribonuclease specificity test. The format is biochemical. Particulars: any concentration tested (0-750 μM).
Description: as §1

T1 sequence (P61823 27-150): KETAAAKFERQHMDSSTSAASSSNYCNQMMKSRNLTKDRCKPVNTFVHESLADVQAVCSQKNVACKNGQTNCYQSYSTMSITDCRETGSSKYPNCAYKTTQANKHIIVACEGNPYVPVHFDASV

As a reminder, the MIC is the lowest concentration that inhibits growth of the organism. On to `Cc1cc(/C=C(/C#N)C(=O)Nc2cccc(Br)c2)c(C)n1-c1ccc(C(=O)O)cc1` [RNPA1000], for which the “mRNA degradation rate of S. aureus cells” value in assay [1] is given as “reduced the mRNA degradation rate”. In assay [2], the “effect of efflux inhibitor reserpine on RNPA1000 susceptibility” value is “no effect”. Also, the effect on growth result in assay [2] is “did not affect”. For the same molecule, the MIC in assay [2] (A. baumannii Isolate 2), in assay [2] (A. baumannii Isolate 3), in assay [2] (A. baumannii Isolate 4), in assay [2] (A. baumannii Isolate 5), in assay [2] (A. baumannii Isolate 5 + reserpine) and in assay [2] (Acinetobacter baumannii) was more than 64 µg/mL each time. The “effect on RNase A activity” value in assay [3] was “did not affect the activity”. Also, the “effect on E. coli RNase HI activity” value in assay [4] is on record as “did not affect the activity”.
